Where two headings read alike, the source gives them in different places.
Assays:
[1] = biological target: T1, SETD2(1434-1711) (Homo sapiens, UniProt Q9BYW2); test: SETD2 (1434-1711) assay; type: biochemical; conditions: read-out: SETD2 (1434-1711)
T1 construct: SETD2 (1434-1711) Assay; catalogue N/A
T1 sequence (Q9BYW2 1434-1711): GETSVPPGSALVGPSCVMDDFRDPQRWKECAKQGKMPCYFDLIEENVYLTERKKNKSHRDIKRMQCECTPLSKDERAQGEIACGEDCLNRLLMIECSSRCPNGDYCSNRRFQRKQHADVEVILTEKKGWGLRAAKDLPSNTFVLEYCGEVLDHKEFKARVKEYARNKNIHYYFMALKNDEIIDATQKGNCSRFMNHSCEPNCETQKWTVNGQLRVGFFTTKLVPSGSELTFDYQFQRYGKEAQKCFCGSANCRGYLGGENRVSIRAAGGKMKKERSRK

[2] = system: H3K36me3 in A549 cells; test: In-Cell Western (ICW) assay of SETD2 inhibitors (A549 assay); type: cell-based, human; conditions: A549 cells, read-out: SETD2 A549
How it was run: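 A549 cells seeded at 4,000/well onto compound and incubated 3 days at 37° C. Methanol-fixed cells stained overnight at 4° C with anti-H3K36me3 (1:1000), then IRDye 800CW secondary with DRAQ5 DNA counterstain. Plates read by Licor imaging at 700 and 800 channels.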

SMILES	IC50 [1] [µM]	IC50 ([2]; Homo sapiens) [µM]	IC50 [2] [µM]
Cc1ccc(F)c2cc(C(=O)Nc3cccc(S(N)(=O)=O)c3)[nH]c12 [compound 454]	2.8	5.9	
Cc1cccnc1C(CCC(=O)N1CCn2cncc2C1)NC(=O)c1cc2cccc(C)c2[nH]1 (stereo not drawn) [compound 460]	4.5	6.2	
CCc1cccc2cc(C(=O)NC(CCC(=O)N3CCOCC3)c3ncccc3C)[nH]c12 (stereo not drawn) [compound 464]	8.4		6.6
CCC(NC(=O)c1cc2cccc(C)c2[nH]1)c1ncccc1C (stereo not drawn) [compound 471]	5.4	8.5	
Cc1cccnc1C(NC(=O)c1cc2cccc(C)c2[nH]1)C(C)C (stereo not drawn) [compound 474]	4.2	8.9	
Cc1cccc2cc(C(=O)Nc3cccc(CN4CCOCC4)c3)[nH]c12 [compound 478]	4.1	9.4	
Cc1cccnc1C(C)NC(=O)c1cc2cccc(C)c2[nH]1 (stereo not drawn) [compound 480]	7	9.5	
Cc1cccc2cc(C(=O)NCC(C)c3ccccc3N3CCOCC3)[nH]c12 (stereo not drawn) [compound 483]	4.1		10.3
Cc1cccc2cc(C(=O)Nc3cnc4nccn4c3)[nH]c12 [compound 484]	7.6		10.6
Cc1cccc2cc(C(=O)Nc3cccc(CN4CCN(C)CC4)c3)[nH]c12 [compound 488]	2.5		11.8
Cc1cccnc1C(CN1CCOCC1)NC(=O)c1cc2cccc(C)c2[nH]1 (stereo not drawn) [compound 489]	7.9	11.8	
Cc1ccc(N2CCOCC2)cc1NC(=O)c1cc2cccc(C)c2[nH]1 [compound 490]	6.5		12.1
Cc1ccc(F)c2cc(C(=O)NC(C(=O)N(C)C)c3ccccn3)[nH]c12 (stereo not drawn) [compound 491]	12.1		12.2
Cc1cccc(O)c1C(NC(=O)c1cc2cccc(C)c2[nH]1)C1CC1 (stereo not drawn) [compound 492]	> 50	12.5	
Cc1cncnc1C(NC(=O)c1cc2cccc(C)c2[nH]1)C1CC1 (stereo not drawn) [compound 493]	> 50	13.1	
Cc1cccnc1C(CCCC(=O)N1CCOCC1)NC(=O)c1cc2cccc(C)c2[nH]1 (stereo not drawn) [compound 494]	6		13.2
Cc1ccc(F)c2cc(C(=O)NC3CCCc4cccnc43)[nH]c12 (stereo not drawn) [compound 498]	9.4		13.8
CC(=O)N1CCN(c2ccccc2CNC(=O)c2cc3cccc(C)c3[nH]2)CC1 [compound 499]	9.1		13.9
Cc1cccnc1C(CC1CC1)NC(=O)c1cc2cccc(C)c2[nH]1 (stereo not drawn) [compound 500]	3		14.5
Cc1ccc(F)c2cc(C(=O)NC(C(N)=O)c3ccccn3)[nH]c12 (stereo not drawn) [compound 503]	9.7		14.8
Cc1cccc2cc(C(=O)N[C@H]3CC[C@H](C)CC3)[nH]c12 [compound 504]	3.8		14.9
Cc1cccc2cc(C(=O)NC3CCOCC3)[nH]c12 [compound 505]	11.2		14.9
Cc1ccc(=O)[nH]c1C(NC(=O)c1cc2cccc(C)c2[nH]1)C1CC1 (stereo not drawn) [compound 506]	4.9		15.1
Cc1cccc2cc(C(=O)NCC3CCCCC3N3CCOCC3)[nH]c12 (stereo not drawn) [compound 508]	10.4		15.2

Stronger by IC50 [1], values ahead:

IC50 [1] [µM]	IC50 ([2]; Homo sapiens) [µM]	IC50 [2] [µM]	SMILES
2.2	6.2		Cc1ccc(F)c2cc(C(=O)NC3C(=O)NCc4ccccc43)[nH]c12 (stereo not drawn) [compound 458]
2.2		10.2	Cc1cccc2cc(C(=O)NC3C(=O)NCCc4ccccc43)[nH]c12 (stereo not drawn) [compound 482]
2.1	9.3		Cc1cc(CN2CCN(C)CC2)cnc1C(NC(=O)c1cc2cccc(C)c2[nH]1)C1CC1 (stereo not drawn) [compound 477]
1.9		7	Cc1cccc2cc(C(=O)Nc3ccc4cncnc4c3)[nH]c12 [compound 466]
1.9		9.7	Cc1cc2nccn2nc1C(NC(=O)c1cc2c(F)ccc(C)c2[nH]1)C1CC1 (stereo not drawn) [compound 481]
1.8	10.8		CCN(CC)Cc1cccc(NC(=O)c2cc3cccc(C)c3[nH]2)c1 [compound 486]
1.8		13.3	Cc1cccc2cc(C(=O)Nc3ccc4ncc(CN(C)C)n4c3C)[nH]c12 [compound 495]
1.6		11	Cc1cccc2cc(C(=O)Nc3ccc4ccc(CN5CCOCC5)cc4c3)[nH]c12 [compound 487]
1.5		6.2	Cc1cccc2cc(C(=O)Nc3ccc4nccn4c3)[nH]c12 [compound 459]
1.4	6.1		Cc1ccc(NC(=O)c2cc3cccc(C)c3[nH]2)cc1CN1CCOCC1 [compound 456]
1.4	7.9		Cc1ccc(N2CCN(C)CC2)cc1NC(=O)c1cc2cccc(C)c2[nH]1 [compound 469]
0.9	7.5		Cc1ccc(F)c2cc(C(=O)Nc3cccc(N4CCOCC4CN(C)C)c3)[nH]c12 (stereo not drawn) [compound 468]
0.9		8.5	Cc1cc2ccccc2nc1C(NC(=O)c1cc2cccc(C)c2[nH]1)C1CC1 (stereo not drawn) [compound 472]
0.8	9.1		Cc1ccc(N2CCN(S(=O)(=O)CCN)CC2)cc1NC(=O)c1cc2cccc(C)c2[nH]1 [compound 476]
0.7	5.8		Cc1cccc2cc(C(=O)Nc3ccc4ccc(CN5CCN(C)CC5)cc4c3)[nH]c12 [compound 453]
0.6	8		Cc1cc(C(=O)NC2CCN(C)CC2)cnc1C(NC(=O)c1cc2cccc(C)c2[nH]1)C1CC1 (stereo not drawn) [compound 470]
0.6		15.5	Cc1cc(C(=O)NC2CCNC2)cnc1C(NC(=O)c1cc2cccc(C)c2[nH]1)C1CC1 (stereo not drawn) [compound 510]
0.5		6.3	COc1cccc(CNCC(O)COc2cnc(C(NC(=O)c3cc4cccc(C)c4[nH]3)C3CC3)c(C)c2)c1 (stereo not drawn) [compound 461]
0.5		14.7	Cc1ccc(F)c2cc(C(=O)Nc3cccc(-c4cc(N)on4)c3)[nH]c12 [compound 502]
0.4	5.6		Cc1cc(C(=O)N[C@H]2CC[C@H]2N)cnc1C(NC(=O)c1cc2cccc(C)c2[nH]1)C1CC1 (stereo partly drawn) [compound 451]
0.4	5.9		Cc1cc(C(=O)N[C@@H]2CC[C@H]2N)cnc1C(NC(=O)c1cc2cccc(C)c2[nH]1)C1CC1 (stereo partly drawn) [compound 455]
0.4	6.6		Cc1cccc2cc(C(=O)Nc3ccc4cnc(CN5CCN(C)CC5)cc4c3)[nH]c12 [compound 465]
0.4	7.3		Cc1cccc2cc(C(=O)Nc3cccc(N4CCN(CCN)CC4)c3)[nH]c12 [compound 467]
0.4		13.4	Cc1cc(C(=O)N[C@H]2CC[C@H](N)CC2)cnc1C(NC(=O)c1cc2cccc(C)c2[nH]1)C1CC1 (stereo partly drawn) [compound 496]
0.4		14.6	Cc1ccc(F)c2cc(C(=O)Nc3cccc(-c4cnc(N)[nH]4)c3)[nH]c12 [compound 501]
0.2		8.8	Cc1cccc2cc(C(=O)Nc3ccc4nc(NC5CCNCC5)ncc4c3)[nH]c12 [compound 473]
0.06	5.7		Cc1cccc2cc(C(=O)Nc3cccc(N4CCC(NCCN)CC4)c3)[nH]c12 [compound 452]

— patent US12116358B2, “Substituted indoles and methods of use thereof” (EPIZYME, INC., priority 2018, dated 2024)
